In patent US11304962B2, “Methods of reducing risk of preterm birth” (COVIS Pharma GmbH, priority 2015, dated 2022):
≈ marks a conversion by molar mass, not a printed value. Like-named read-outs stand apart in the source and are kept apart here.

Tests used:
[1] = Randomized bioavailability study of 17-HPC, SC injection in triceps area (1.1 or 1.2 mL) vs IM injection (1.0 mL); type: in vivo, human; conditions: for AUC(0-t) / AUC(0-inf) / Cmax / Tmax / half-life: female, human, plasma; for Cmax: healthy postmenopausal women, read-out: Cmax, geometric mean (geometric CV); for Tmax: read-out: Tmax, median; for half-life: read-out: t½, geometric mean (geometric CV) (converted)
Protocol: A randomized study is conducted to compare the bioavailability and injection site pain when 17-HPC, 250 mg/mL, is administered as a single 1.0 mL IM injection (250 mg) in the gluteus maximus or a 1.1 (275 mg) or 1.2 mL (300 mg) SQ injection in the triceps area of healthy post-menopausal women. Patients are randomized into two groups by route of administration. Group A receives a 1.0 mL IM injection of 17-HPC into the upper outer quadrant of the gluteus maximus. Group B receives a 1.1 or 1.2 mL SC injection into the upper outer thigh or arm (triceps area). Patient reported outcomes of injection site pain are collected to assess the safety and usability of SQ administration, either by medical staff or for self-administration of 17-HPC.
All patients have blood drawn prior to administration of 17-HPC, and at 2, 4, 8, 12, 18 and 24 hours post dose, and again at approximately the same time as dosing on days 2-7, 14, 21, and 28.

[2] = Solubility of HPC in benzyl benzoate/castor oil mixtures; type: physicochemical; conditions: for solubility: benzyl benzoate/castor oil mixture, oil or lipid, read-out: mg HPC/mL solution (solubility)
Text: Weight percent of BB is relative to the castor oil.

[3] = Single-dose crossover pharmacokinetic study of 17-HPC, SQ (upper anterior thigh) vs IM (gluteus maximus) injection; type: in vivo, human; conditions: for AUC(0-t) / Cmax: female, human, single dose, healthy postmenopausal women, plasma; for AUC(0-t): read-out: AUC0-t, LS Geometric Mean; for Cmax: read-out: Cmax, LS Geometric Mean
Protocol: An open-label, randomized, single-dose, two-period, two-treatment, four-sequence, crossover study was conducted to compare equal 250 mg doses of 17-HPC injections, 250 mg/ml given as either a 1 mL deep IM injection to the upper outer quadrant of the gluteus maximus or a 1 mL SQ injection to the upper anterior thigh. The study was conducted with 12 healthy, non-tobacco using postmenopausal adult women. The subjects were given the SQ injection in one study period and the IM injection in the other study period according to the four-sequence randomization schedule. Blood was taken at 4, 24, 48, 72, 96, 120 and 144-hours post-treatment, and plasma concentrations of 17-HPC were measured. The interval between doses was 21 days. The analytical data were used to estimate the pharmacokinetic parameters AUC0-t, Cmax, and Tmax.

[4] = IM 1.0 mL (250 mg) gluteus maximus
[5] = SC 1.1 mL (275 mg) triceps area
[6] = SC 1.2 mL (300 mg) triceps area
[7] = 25° C., 63.33 wt % BB relative to castor oil
[8] = 250 mg SQ thigh vs 250 mg IM gluteus maximus
[9] = subcutaneous, SQ injection 250 mg (1 mL) upper anterior thigh
[10] = IM injection 250 mg (1 mL) gluteus maximus

Which results are given for `CCCCCC(=O)O[C@]1(C(C)=O)CC[C@H]2[C@@H]3CCC4=CC(=O)CC[C@]4(C)[C@H]3CC[C@@]21C` [17-HPC, 17-alpha-hydroxyprogesterone caproate]?
[…]z, geometric mean (geometric CV) [1, 4]: 0.0031 (37.3) [11] 1/hr; […]z, geometric mean (geometric CV) [1, 5]: 0.0031 (26.8) [17] 1/hr; […]z, geometric mean (geometric CV) [1, 6]: 0.0031 (38.4) [14] 1/hr; AUC(0-t) Least Squares Geometric Mean Ratio, Estimate ([1]; SC (1.1 mL) vs. IM (1.0 mL)): 103.64%; AUC(inf) Least Squares Geometric Mean Ratio, Estimate ([1]; SC (1.1 mL) vs. IM (1.0 mL)): 100.71%; Cmax Least Squares Geometric Mean Ratio, Estimate ([1]; SC (1.1 mL) vs. IM (1.0 mL)): 123.42%; AUC(0-t) Least Squares Geometric Mean Ratio, Estimate ([1]; SC (1.1 mL) vs. SC (1.2 mL)): 94.40%; AUC(inf) Least Squares Geometric Mean Ratio, Estimate ([1]; SC (1.1 mL) vs. SC (1.2 mL)): 91.63%; Cmax Least Squares Geometric Mean Ratio, Estimate ([1]; SC (1.1 mL) vs. SC (1.2 mL)): 107.50%; AUC(0-t) Least Squares Geometric Mean Ratio, Estimate ([1]; SC (1.2 mL) vs. IM (1.0 mL)): 109.78%; AUC(inf) Least Squares Geometric Mean Ratio, Estimate ([1]; SC (1.2 mL) vs. IM (1.0 mL)): 109.91%; Cmax Least Squares Geometric Mean Ratio, Estimate ([1]; SC (1.2 mL) vs. IM (1.0 mL)): 114.81%; AUC(0-t) ([1]; im, 250 mg, IM 1.0 mL (250 mg) gluteus maximus, read-out: AUC(0-t), Least Squares Geometric Mean): 2680 ng·h/mL; AUC(0-t) ([1]; im, 250 mg, IM 1.0 mL (250 mg) gluteus maximus, read-out: AUC(0-t), geometric mean (geometric CV)): 2680 ng·h/mL; AUC(0-inf) ([1]; im, 250 mg, IM 1.0 mL (250 mg) gluteus maximus, read-out: AUC(inf), Least Squares Geometric Mean): 2910 ng·h/mL; AUC(0-inf) ([1]; im, 250 mg, IM 1.0 mL (250 mg) gluteus maximus, read-out: AUC(inf), geometric mean (geometric CV)): 2910 ng·h/mL; AUC(0-t) ([1]; sc, 275 mg, SC 1.1 mL (275 mg) arm, read-out: AUC(0-t), Least Squares Geometric Mean): 2770 ng·h/mL; AUC(0-inf) ([1]; sc, 275 mg, SC 1.1 mL (275 mg) arm, read-out: AUC(inf), Least Squares Geometric Mean): 2930 ng·h/mL; AUC(0-t) ([1]; sc, 275 mg, SC 1.1 mL (275 mg) triceps area, read-out: AUC(0-t), geometric mean (geometric CV)): 2770 ng·h/mL; AUC(0-inf) ([1]; sc, 275 mg, SC 1.1 mL (275 mg) triceps area, read-out: AUC(inf), geometric mean (geometric CV)): 2940 ng·h/mL; AUC(0-t) ([1]; sc, 300 mg, SC 1.2 mL (300 mg) arm, read-out: AUC(0-t), Least Squares Geometric Mean): 2940 ng·h/mL; AUC(0-inf) ([1]; sc, 300 mg, SC 1.2 mL (300 mg) arm, read-out: AUC(inf), Least Squares Geometric Mean): 3200 ng·h/mL; AUC(0-t) ([1]; sc, 300 mg, SC 1.2 mL (300 mg) triceps area, read-out: AUC(0-t), geometric mean (geometric CV)): 2940 ng·h/mL; AUC(0-inf) ([1]; sc, 300 mg, SC 1.2 mL (300 mg) triceps area, read-out: AUC(inf), geometric mean (geometric CV)): 3200 ng·h/mL; Cmax [1, 4]: 7.08 ng/mL; Tmax [1, 4]: 120 h; half-life [1, 4]: 220 h; Cmax [1, 5]: 8.74 ng/mL; Tmax [1, 5]: 24 h; half-life [1, 5]: 223 h; Cmax [1, 6]: 8.13 ng/mL; Tmax [1, 6]: 48 h; half-life [1, 6]: 225 h; Avg. HPC wt % (solubility) ([2]; 5° C., 53.01 wt % BB relative to castor oil): 18.60 wt %; Avg. HPC wt % (solubility) ([2]; 5° C., 63.33 wt % BB relative to castor oil): 20.31 wt %; Avg. HPC wt % (solubility) ([2]; 5° C., 69.43 wt % BB relative to castor oil): 21.62 wt %; Avg. HPC wt % (solubility) ([2]; 5° C., 75.59 wt % BB relative to castor oil): 23.00 wt %; Avg. HPC wt % (solubility) ([2]; 5° C., 81.79 wt % BB relative to castor oil): 24.65 wt %; Avg. HPC wt % (solubility) ([2]; 5° C., 87.91 wt % BB relative to castor oil): 25.22 wt %; Avg. HPC wt % (solubility) ([2]; 15° C., 53.01 wt % BB relative to castor oil): 20.49 wt %; Avg. HPC wt % (solubility) ([2]; 15° C., 63.33 wt % BB relative to castor oil): 22.96 wt %; Avg. HPC wt % (solubility) ([2]; 15° C., 69.43 wt % BB relative to castor oil): 24.28 wt %; Avg. HPC wt % (solubility) ([2]; 15° C., 75.59 wt % BB relative to castor oil): 25.97 wt %; Avg. HPC wt % (solubility) ([2]; 15° C., 81.79 wt % BB relative to castor oil): 27.32 wt %; Avg. HPC wt % (solubility) ([2]; 15° C., 87.91 wt % BB relative to castor oil): 28.30 wt %; Avg. HPC wt % (solubility) ([2]; 25° C., 53.01 wt % BB relative to castor oil): 24.08 wt %; Avg. HPC wt % (solubility) [2, 7]: 27.17 wt %; Avg. HPC wt % (solubility) ([2]; 25° C., 69.43 wt % BB relative to castor oil): 28.76 wt %; Avg. HPC wt % (solubility) ([2]; 25° C., 75.59 wt % BB relative to castor oil): 30.62 wt %; Avg. HPC wt % (solubility) ([2]; 25° C., 81.79 wt % BB relative to castor oil): 31.98 wt %; Avg. HPC wt % (solubility) ([2]; 25° C., 87.91 wt % BB relative to castor oil): 33.26 wt %; solubility data over multiple days ([2]; BB/castor oil with and without benzyl alcohol, 5, 15, 25° C., over 5 days): fairly constant; solubility ([2]; 5 °C, 5° C., 53.01 wt % BB relative to castor oil): 200 mg/mL (≈ 467 mM); solubility ([2]; 5 °C, 5° C., 63.33 wt % BB relative to castor oil): 222 mg/mL (≈ 518 mM); solubility ([2]; 5 °C, 5° C., 69.43 wt % BB relative to castor oil): 238 mg/mL (≈ 555 mM); solubility ([2]; 5 °C, 5° C., 75.59 wt % BB relative to castor oil): 253 mg/mL (≈ 590 mM); solubility ([2]; 5 °C, 5° C., 81.79 wt % BB relative to castor oil): 273 mg/mL (≈ 637 mM); solubility ([2]; 5 °C, 5° C., 87.91 wt % BB relative to castor oil): 284 mg/mL (≈ 663 mM); solubility ([2]; 15 °C, thermodynamic from solid, 15° C., 53.01 wt % BB relative to castor oil): 220 mg/mL (≈ 513 mM); solubility ([2]; 15 °C, thermodynamic from solid, 15° C., 63.33 wt % BB relative to castor oil): 254 mg/mL (≈ 593 mM); solubility ([2]; 15 °C, thermodynamic from solid, 15° C., 69.43 wt % BB relative to castor oil): 269 mg/mL (≈ 628 mM); solubility ([2]; 15 °C, thermodynamic from solid, 15° C., 75.59 wt % BB relative to castor oil): 289 mg/mL (≈ 674 mM); solubility ([2]; 15 °C, thermodynamic from solid, 15° C., 81.79 wt % BB relative to castor oil): 306 mg/mL (≈ 714 mM); solubility ([2]; 15 °C, thermodynamic from solid, 15° C., 87.91 wt % BB relative to castor oil): 320 mg/mL (≈ 747 mM); solubility ([2]; 25 °C, 25° C., 69.43 wt % BB relative to castor oil): 321 mg/mL (≈ 749 mM); solubility ([2]; 25 °C, 25° C., 75.59 wt % BB relative to castor oil): 347 mg/mL (≈ 810 mM); solubility ([2]; 25 °C, 25° C., 81.79 wt % BB relative to castor oil): 363 mg/mL (≈ 847 mM); solubility ([2]; 25 °C, 25° C., 87.91 wt % BB relative to castor oil): 382 mg/mL (≈ 891 mM); solubility ([2]; 25 °C, thermodynamic from solid, 25° C., 53.01 wt % BB relative to castor oil): 262 mg/mL (≈ 611 mM); solubility [2, 7]: 303 mg/mL (≈ 707 mM); AUC0-t LSGM Ratio A (SQ) vs B (IM) [3, 8]: 73.85%; Cmax LSGM Ratio A (SQ) vs B (IM) [3, 8]: 68.39%; AUC(0-t) [3, 9]: 458 ng·h/mL; Cmax [3, 9]: 4.2 ng/mL; AUC(0-t) [3, 10]: 621 ng·h/mL; Cmax [3, 10]: 6.14 ng/mL
